# Source: EP4563146A1 (IRBM S.P.A., priority 2023, dated 2025)
# Like-named read-outs stand apart in the source and are kept apart here.
# Legend:
# [1] = biological target: T1, West Nile Virus (WNV) NS2B-NS3 protease (West Nile virus, UniProt Q9Q6P4); assay: WNV protease inhibition assay; type: biochemical; details: Table 4; letter codes for IC50
# T1 construct: NS2B1423-1470); purchased R&D 2907-SE-020
# Excerpt: WNV protease inhibition assay
# ZIKV replicon = assay: ZIKV replication inhibition assay (NanoLuc replicon in Vero cells); details: 72 h
# [2] = Zika virus, Vero, read-out: ZIKA Cell_Nanoluc, Vero cells with stable ZIKV replicon, 72 h, Nano-Glo readout
# [3] = Zika virus, Vero, read-out: ZIKA Cell_Nanoluc
# T1 sequence (Q9Q6P4 1423-1470): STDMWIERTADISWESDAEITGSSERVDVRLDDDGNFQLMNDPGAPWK
# T1 sequence (Q9Q6P4 1506-1689): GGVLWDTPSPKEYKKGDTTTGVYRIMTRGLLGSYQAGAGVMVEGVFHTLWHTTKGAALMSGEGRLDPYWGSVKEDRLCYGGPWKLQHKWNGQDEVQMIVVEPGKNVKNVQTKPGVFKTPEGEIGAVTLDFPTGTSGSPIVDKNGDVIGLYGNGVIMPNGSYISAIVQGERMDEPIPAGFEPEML
SMILES,IC50 [1],EC50 (ZIKV replicon; [2]),EC50 (ZIKV replicon; [3]),"EC50 (ZIKV replicon; read-out: ZIKA Cell_Nanoluc, Vero cells with stable ZIKV replicon, Nano-Glo readout)"
"Cc1ccccc1CC(=O)Nc1cc(NC(=O)[N-]c2c[n+]([C@@H]3CCC[C@H](CN(C)C)C3)no2)cc(C(F)(F)F)c1 (stereo in doubt) [Example 247, rac-(3-((1R,3S)-3-((Dimethylamino)methyl)-cyclohexyl)-1,2,3-oxadiazol-3-ium-5-yl)((3-(2-(o-tolyl)acetamido)-5-(trifluoromethyl)phenyl)-carbamoyl)amide]",100 to 1000 nM,1000 to 20000 nM,,
"Cc1nc(N)ncc1-c1ccc(C[n+]2cc([N-]C(=O)Nc3ccnc(C(F)(F)F)c3)on2)cc1 [Example 260, (3-(4-(2-Amino-4-methylpyrimidin-5-yl)benzyl)-1,2,3-oxadiazol-3-ium-5-yl)((2-(trifluoromethyl)pyridin-4-yl)carbamoyl)amide]",< 100 nM,< 100 nM,,
"Cc1ccccc1CC(=O)Nc1cc(NC(=O)[N-]c2c[n+]([C@H]3CC[C@H](N(C)C)CC3)no2)cc(C(F)(F)F)c1 [Example 257, (3-((1R,4R)-4-(Dimethylamino)cyclohexyl)-1,2,3-oxadiazol-3-ium-5-yl)((3-(2-(o-tolyl)-acetamido)-5-(trifluoromethyl)phenyl)-carbamoyl)amide]",< 100 nM,,1000 to 20000 nM,
"COC(=O)[C@H]1CCC[C@@H]([n+]2cc([N-]C(=O)Nc3cc(NC(=O)Cc4ccccc4C)cc(C(F)(F)F)c3)on2)C1 [Example 223, (3-((1R,3S)-3-(Methoxycarbonyl)cyclohexyl)-1,2,3-oxadiazol-3-ium-5-yl)((3-(2-(o-tolyl)acetamido)-5-(trifluoromethyl)phenyl)-carbamoyl)amide]",< 100 nM,< 100 nM,,
"CN(C)CC1CCC([n+]2cc([N-]C(=O)Nc3cc(NC(=O)CCc4cnccn4)cc(C(F)(F)F)c3)on2)CC1 [Example 158, (3-((1R,4R)-4-((Dimethylamino)methyl)-cyclohexyl)-1,2,3-oxadiazol-3-ium-5-yl)((3-(3-(pyrazin-2-yl)propanamido)-5-(trifluoromethyl-)phenyl)carbamoyl)amide]",1000 to 20000 nM,,,> 20000 nM
"Cc1ccccc1CC(=O)Nc1cc(NC(=O)[N-]c2c[n+]([C@H]3CCC[C@@H](CN(C)C)C3)no2)cc(C(F)(F)F)c1 [Example 213, (3-((1S,3R)-3-((Dimethylamino)methyl)-cyclohexyl)-1,2,3-oxadiazol-3-ium-5-yl)((3-(2-(o-tolyl)acetamido)-5-(trifluoromethyl)phenyl)carbamoyl)amide]",100 to 1000 nM,1000 to 20000 nM,,
"CN(C)[C@H]1CCC[C@@H]([n+]2cc([N-]C(=O)Nc3cc(NC(=O)Cc4ccccc4)cc(C(F)(F)F)c3)on2)C1 [Example 174, (3-((1R,3S)-3-(Dimethylamino)cyclohexyl)-1,2,3-oxadiazol-3-ium-5-yl)((3-(2-phenyl-acetamido)-5-(trifluoromethyl)phenyl)-carbamoyl)amide]",100 to 1000 nM,1000 to 20000 nM,,
"Cc1nn(C)cc1-c1ccc(C[n+]2cc([N-]C(=O)Nc3ccnc(C(F)(F)F)c3)on2)cc1 [Example 237, (3-(4-(1,3-Dimethyl-1H-pyrazol-4-yl)benzyl)-1,2,3-oxadiazol-3-ium-5-yl)((2-(trifluoromethyl)-pyridin-4-yl)carbamoyl)amide]",100 to 1000 nM,1000 to 20000 nM,,
"CN(C)C[C@H]1CC[C@H]([n+]2cc([N-]C(=O)Nc3cc(NC(=O)C(C)(C)c4ccccc4)cc(C(F)(F)F)c3)on2)CC1 [Example 208, (3-((1R,4R)-4-((Dimethylamino)methyl)-cyclohexyl)-1,2,3-oxadiazol-3-ium-5-yl)((3-(2-methyl-2-phenylpropanamido)-5-(trifluoromethyl)phenyl)carbamoyl)amide]",100 to 1000 nM,,1000 to 20000 nM,
"C[C@H](C(=O)Nc1cc(NC(=O)[N-]c2c[n+]([C@H]3CC[C@H](CN(C)C)CC3)no2)cc(C(F)(F)F)c1)c1ccccc1 [Example 170, (3-((1R,4S)-4-((Dimethylamino)methyl)-cyclohexyl)-1,2,3-oxadiazol-3-ium-5-yl)((3-((S)-2-phenylpropanamido)-5-(trifluoromethyl)-phenyl)carbamoyl)amide]",< 100 nM,,100 to 1000 nM,
